Experimental data as given in a melting point compilation (Tetko et al.; mined from patent text by program, amines drawn as free bases though some values may be those of a salt).

SMILES	melting point
CCOCCc1ccc(OCCNc2ncnc3oc(C)c(C)c23)c(C)c1	92 to 93 °C
CC(C)(C)C(NC(=O)c1ccc(Cl)cc1)NC(=NS(=O)(=O)c1ccccc1)Nc1cccnc1 (stereo unspecified)	196 to 197 °C
CCOC(=O)C1CCCCC1Nc1cn[nH]c1 (stereo unspecified)	92 to 94 °C
C[C@@H]1C[C@](C)(O)[C@H](C)N1c1ccc(C#N)c(Cl)c1	132 to 133 °C
O=C(NC1CCC(CCN2CCC(c3cccc4c3CCO4)CC2)CC1)C1CCOC1 (racemic)	211 °C
Cc1cc2c(cc1C)C1(CO2)C(=O)N(C(c2ccccc2)c2ccccc2)c2ccccc21 (stereo unspecified)	193 to 195 °C
O=C1COc2cc(CN3CCN(c4ccccc4)CC3)ccc2N1	191 to 193 °C
CC(=O)NC(=S)NCC1CC2c3cccc4c3c(cn4C)CC2N(C)C1 (stereo unspecified)	195 to 197 °C
CSc1nn(C(C)(C)C)c(=O)c(Cl)c1C1CCC(C(C)(C)C)CC1 (stereo unspecified)	96 °C
CCOC(=O)CC(=O)N(C)c1ccccc1[N+](=O)[O-]	54 to 55 °C
Clc1ccc(C2=CCN(Cc3coc4ncccc34)CC2)cc1	116 °C
N=C(Nc1ccccc1)Nc1ncccc1OCc1c(Cl)cccc1Cl	163 to 165 °C
O=C(/C=C/c1ccc(O)cc1Cl)CC(=O)/C=C/c1cc(O)ccc1[N+](=O)[O-]	132 to 136 °C
CC(=O)Oc1ccc(C=CC(=O)NC2CCc3ccccc32)cc1[N+](=O)[O-] (stereo unspecified)	177 to 178 °C
N=C(N)c1ccc(C(=O)N2CCCC2CC(=O)NCCC(=O)O)cc1 (stereo unspecified)	> 250 °C
Cn1cc(C2=C(c3cn(C)c4cc(CC#N)ccc34)C(=O)NC2=O)c2ccccc21	225 to 226 °C
O=S(=O)(/C=C/c1ccc(F)cc1F)CS(=O)(=O)/C=C/c1ccc(F)cc1F	193 to 195 °C
O=S(Cc1ccccc1)C1CCN(Cc2ccccc2)CC1 (racemic)	123 °C
CN(Cc1cc(C(F)(F)F)cc(C(F)(F)F)c1)C(=O)c1nc(N2CCOCC2)ncc1-c1ccccc1	154 to 155 °C
O=C(Nc1ccc(O)c(O)c1)C12CC3CC(CC(C3)C1)C2	196 to 199 °C
Cc1[nH]cnc1CCC(=O)N(C)C	62 to 64 °C
O=C1C2CCC(N2)C(=O)N1Cc1ccccc1	72 °C
CCCCc1nc2cnc3ccccc3c2n1CC1(O)CCOCC1	180 to 181 °C
CC(=O)COC(=O)C=CC(=O)OCC(C)=O	121 to 123 °C
O=c1[nH]c2ncc(-c3ccc4[nH]cnc4c3)nc2n1CC1CCCCC1	217 to 220 °C
CCc1nc2c(N)nc3ccccc3c2n1CCCC#Cc1ccccc1	199 to 202 °C

SMILES	melting point
CCCCCC(=O)Nc1nc2c(ncn2CCC(CO)CO)c(=O)[nH]1	86 to 88 °C
CCCCCCCCCCC(=O)c1ccncc1	51 to 52 °C
CS(=O)(=O)c1ccc(C(O)c2ccc3ccccc3c2)cc1 (stereo unspecified)	100 °C
Nc1ncnc(N2CCc3ccccc3CC2)c1[N+](=O)[O-]	> 200 °C
O=C(O)c1cc2cc(-c3ccc(O)cc3)ccc2o1	297 to 300 °C
CCOc1c(C)cnc(CO)c1C	58 to 59 °C
COc1cc(C(=N)N)ccc1OCc1ccc(CN2C(=O)c3ccccc3C2=O)cc1	228 to 230 °C
FC(F)(F)c1nc(Cl)c(Cl)[nH]1	186 to 188 °C
CCSc1ccc([N+](=O)[O-])c(N)c1	75 to 76 °C
OC(CCc1ccccc1)c1cnc2sc3cc(F)ccc3n12 (stereo unspecified)	195 to 196 °C
O=C(Nc1nccs1)C(CC1CCCC1)c1ccc(Cl)c(Cl)c1 (stereo unspecified)	120 to 122 °C
CCOC(=O)CC1C(=O)N(CCc2c[nH]c3cc(C)ccc23)CCN1C(=O)c1ccccc1 (stereo unspecified)	155 °C
CCOC(=O)CCSC(CC)=NNC(N)=O	63.5 to 64.5 °C
COc1cc(Nc2nccc(Nc3ccc(CC(=O)OCc4ccccc4)cc3)n2)cc(OC)c1OC	149 °C
CN(C)C=CC(=O)c1ccc(OCc2ccccc2)cc1	138 °C
CCOC(=O)C(CC(C)C)NC(=O)N1CCc2cc(S(=O)(=O)N3CCN(c4cccc(Cl)c4)CC3)ccc21 (stereo unspecified)	76 to 77 °C
c1ccc(OCCSCc2nnc(-c3ccc(OCCN4CCCCC4)cc3)o2)cc1	70 °C
CC1(C)SCN(CCCCN2CCN(c3n[nH]c4ccccc34)CC2)C1=O	139 to 142 °C
Nc1ccnn1-c1c(F)cc(C(F)(F)F)cc1Cl	87 to 90 °C
CC(C)(C)C(=O)C(C#N)C(=O)c1ccc(S(C)(=O)=O)cc1Cl (stereo unspecified)	144 °C
CCOc1cc(NC(C)=O)c([N+](=O)[O-])cc1C(=O)OC	110 °C
COc1cc(Nc2c(C#N)cnc3cc(OCCCN4CCS(=O)(=O)CC4)c(OC)cc23)c(Cl)cc1Cl	118 to 120 °C
O=C1c2c(OCc3ccccc3)c(OCc3ccccc3)cc(OCc3ccccc3)c2-c2nn(CCNCCO)c3ccc(NCCNCCO)c1c23	186 to 188 °C
CN1CCCC1=NCCOS(=O)(=O)Oc1c[nH]c2ccccc12	154 to 158 °C
CCOC(=O)c1nc(N)sc1-c1ccccn1	186 to 187 °C
CNCCCOc1cc(F)c(-c2c(Cl)nc(-c3cnccn3)nc2N[C@@H](C)C(F)(F)F)c(F)c1	48 to 50 °C

SMILES	melting point
Cc1cc(Br)cc(C)c1NC(=O)C(C)Br (stereo unspecified)	187 to 189 °C
N#CCCN(C(N)=O)C1CCCCC1	110 to 112 °C
ON=C1CCN(C2c3ccccc3COc3ccc(Br)cc32)CC1 (stereo unspecified)	223 to 225 °C
CC(=O)Nc1nc(-c2ccc(F)cc2)c(-c2ccc(=O)n(C(C)C)n2)s1	236 to 238 °C
O=C(O)CCCCOc1ccccc1OCc1ccccc1	74 to 75 °C
C=CCOCN1C(C)=C(C(=O)OCC)C(c2cccc([N+](=O)[O-])c2)C(C(=O)OCC)=C1C	111 to 112 °C
COc1ccc(C(=O)Nc2cccnc2Cl)cc1	125 °C
CCN1CCc2ccc(Nc3ncc(Cl)c(Nc4cc(Cl)ccc4C(=O)NC)n3)cc2CC1	223 °C
CCCc1c(OC(C)=O)cc2oc3cc(Cl)cn3c(=O)c2c1OC(C)=O	178 to 179 °C
c1ccc2c(c1)Cc1cc(C3(Cn4cncn4)OCCO3)ccc1-2	187 °C
CCOC(=O)c1c(C)cc2c(=O)n(-c3ccccc3Cl)cnc2c1C	151 to 152 °C
Cc1cc(-c2nnn(C)n2)cc(C)c1OCCCn1ncnc1C	126 to 128 °C
N#Cc1ccc(N2CCC(F)C2)c2ccsc12 (stereo unspecified)	151 to 152 °C
CC(C)n1nc(CC(=O)c2cccc(F)c2)ccc1=O	80 to 81 °C
C=Cc1cc2c(Cl)cc(F)c(-n3c(=O)cc(C(F)(F)F)n(C)c3=O)c2o1	108 to 109 °C
O=C(O)c1ccc2c(c1)Sc1ccccc1CC2O (stereo unspecified)	202 to 204 °C
COc1cc2c(Nc3ccc4cn[nH]c4c3)c(C#N)cnc2cc1OCCN1CCSCC1	213 to 215 °C
CC1CC(C(=O)O)NC1=O (stereo unspecified)	169 to 170 °C
CCO[C@@H]1C[C@H](C(=O)Nc2ccc(N3CCOCC3=O)c(C)c2)N(C(=O)Nc2ccc(Cl)cc2)C1	117 °C
CN1C(=O)CC(c2ccc(N)cc2)C1C(O)c1ccc(-c2ccccc2)s1 (stereo unspecified)	221 to 222 °C
CC(C)(C)OC(=O)CN1C(=O)C(NC(=O)Nc2cccc(Cl)c2)CC(c2ccccc2)CC1Cc1ccccc1 (stereo unspecified)	95 to 110 °C
CC(C)(C)OC(=O)Nc1cc(OCC2COC(C)(C)O2)c(C#Cc2ccccc2)cc1NC(=O)CC(=O)c1cccc(C#N)c1 (stereo unspecified)	132 to 134 °C
CC(=O)Nc1cccc(-n2nc(C#N)c(=O)n(Cc3ccc(Cl)cc3)c2=O)c1	196 °C
NS(=O)(=O)c1ccc(-n2nc(CCCNC(=O)NC3CCCCCC3)cc2-c2ccccc2)cc1	164 to 170 °C
COCCNc1ncc(-c2cnc3[nH]c(=O)n(CC4CCCCC4)c3n2)cn1	> 250 °C
Cc1ccc(S(=O)(=O)N2CCC[C@H](C(C#N)(c3ccccc3)c3ccccc3)C2)cc1	148 to 150 °C

SMILES	melting point
CCCNC(=O)c1c(N)cc(Cl)cc1Cl	113 to 119 °C
CC(C)(C)OC(=O)NC[C@H]1CC[C@H](CO)CC1	88 to 89 °C
COc1cc2c(cc1Cl)CCNC[C@H]2c1ccccc1	81 to 82 °C
N#CC(C=CC=O)=C(c1ccc(F)cc1)c1ccc(F)cc1	155 to 156 °C
CC(C)C1(Cl)Cc2cc(OCC(=O)O)c(Cl)c(Cl)c2C1=O (stereo unspecified)	158 to 159 °C
O=[N+]([O-])c1cnccc1NCC(O)CO (stereo unspecified)	131 to 135 °C
Cc1cc(CCCCCOc2ccc(C#N)cc2)no1	61 to 62 °C
CN(C)c1c(Cl)nc(-c2ccccc2)nc1Cl	49 to 50 °C
O=c1c2ccccc2c(Br)c(Br)c2ccc(Br)cc12	173 to 175 °C
C#CCN1C(=O)COc2cc(F)c(-n3c(=O)oc4c(c3=O)CCC4)cc21	222 to 224 °C
COC(=S)c1cc(F)c(-c2ccccc2)nc1Nc1ccc(F)cc1F	128 °C
CN1C(C)(C)CC(NC(=O)c2ccc(-c3nc4cc(Cl)c(Cl)cc4[nH]3)c(O)c2)CC1(C)C	> 250 °C
COC(=O)c1c(C(=O)O)nc2cc(Cl)ccc2c1O	215 °C
Cc1oc(-c2ccccc2)nc1C=Cc1ccc(/C=C/C=C2/OC(=O)NC2=O)cc1	274 to 275 °C
CC(C#N)NC(=O)NC(C)(C)C (stereo unspecified)	161 to 163 °C
O=C(O)c1ccccc1-c1nc2cc(-c3ccccc3)ccc2s1	177 to 178 °C
CCC1c2c(ncn2CC)CCN1C(=O)NC(C)C (stereo unspecified)	155 °C
Fc1ccc(-c2ncn(C3CCNCC3)c2-c2ccnc(Oc3ccc4c(c3)OCO4)n2)cc1	131 to 132 °C
Cc1nc(CC#N)c2n1-c1ccc(Cl)cc1C(c1ccccc1Cl)=NC2	212 to 214 °C
FC(F)c1nc2ccccc2n1-c1nc(NCc2ccncc2)nc(N2CCOCC2)n1	188 to 190 °C
CC1(CO)Cc2c(cc(C(C)(C)C)c(O)c2C(C)(C)C)O1 (stereo unspecified)	126 to 128 °C
Cn1ncc(NCCCN2CCC(c3noc4cc(F)ccc34)CC2)cc1=O	163 to 165 °C
COc1cccc2c(Nc3ccc(C(=O)NC4CCN(Cc5ccccc5)CC4)cc3)c(C(=O)NC3CCN(C)CC3)cnc12	230 to 232 °C
